# Target: T1, human IL-17AA (Homo sapiens, UniProt Q16552)
# T1 construct: host or cells: HEK (human embryonic kidney) cells
# T1 sequence (Q16552 24-155): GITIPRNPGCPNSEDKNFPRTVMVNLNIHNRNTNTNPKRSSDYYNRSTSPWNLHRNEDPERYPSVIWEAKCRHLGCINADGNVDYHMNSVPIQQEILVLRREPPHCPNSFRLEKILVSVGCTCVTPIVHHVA
# Assay: IL-8 release assay in human epithelial keratinocytes adult (HEKa)
# Format: cell-based
# Settings: HEKa cells, 3 ng/mL HEK-human IL-17AA + 10 ng/mL human TNFalpha; read-out: Rel EC50 IL-8 release assay
# Description: Example 138: IL-8 Release Assay in Human Epithelial Keratinocytes Adult (HEKa)
# Keratinocytes were seeded at 3500 cells/well in 384-well ViewPlates (Perkin Elmer) in Epilife medium (Thermo Fisher) containing human keratinocyte growth supplement (HKGS) without hydrocortisone and incubated in a humid incubator at 37° C. 5% CO2, overnight. The following day growth medium was removed and 25 μl fresh Epilife medium added. 75 nL test compound in 100% DMSO was added into each well reserved for test compounds, by the use of acoustic pipetting. The remaining wells received an equal volume of DMSO only, as vehicle control, or terfenadine in DMSO, as a positive control for any cytotoxic compounds. Subsequently, another 25 μL Epilife medium was added to each well. Finally, wells containing test compounds and wells prepared to yield maximum stimulation received […] of 9 ng/mL recombinant, human embryonic kidney cell (HEK)-derived human IL-17AA+30 ng/mL human TNF-alpha, in Epilife medium. Wells prepared to define 100% inhibition of IL-17 effects received 25 μL of 30 ng/mL human TNF-alpha alone, in Epilife medium. Final concentrations were 3 ng/mL HEK-human IL-17AA+10 ng/mL human TNFalpha (maximum stimulation) and 10 ng/mL human TNFalpha alone (100% inhibition, Emax), respectively. Cells were incubated for 68-72 hours in the incubator. IL-8 released from the cells was measured by the use of a commercial homogenous time-resolved fluorescence (HTRF) assay (CisBio). 2 μL cell culture supernatant was transferred to a 384-well Proxiplate. 5 μL HTRF reagent was added and the plates incubated sealed in the dark for 3-22 hours at room temperature. Time-resolved fluorescence was read at 665 vs 620 nm, with excitation at 320 nm, and IL-8 levels calculated as percent of controls. Reduction of the amount of secreted IL-8 indicates decreased IL-17 signaling. Concentration response curves were fitted by the use of a four-parameter logistic equation. Relative IC50 and Emax were reported from curves showing acceptable fit (r^2>0.9). Cytotoxicity was measured in the cell-containing Viewplates following addition of 7 μL PrestoBlue (Thermo Fisher) and incubation for 2.5-3 hours at room temperature, by measuring fluorescence at 615 nm (excitation at 535 nm). Fluorescence was directly proportional to the amount of metabolic activity. Reduction of fluorescence signal indicated cytotoxicity.
# Compounds of the present invention were tested in the IL-8 release assay in human epithelial keratinocytes.
# Compounds having a Relative EC50 of X; wherein X<100 nM; are indicated with *
# Compounds having a Relative EC50 of X; wherein 100 nM<X<1000 nM; are indicated with **
# Compounds having a Relative EC50 of X; wherein 1000 nM<X; are indicated with ***
row,Compound,EC50 [nM]
1,"Cc1n[nH]c(C)c1-c1ccc(NC(=O)C(NC(=O)c2ccnn2C)C(C)c2ccccc2)cc1 (single isomer, unassigned) [Example 235]",> 1000
2,"Cc1n[nH]c(C)c1-c1ccc(NC(=O)C(NC(=O)c2ccnn2C)C(C)c2ccccc2)cc1 (single isomer, unassigned) [Example 237]",> 1000
3,"Cc1n[nH]c(C)c1-c1ccc(NC(=O)[C@@H](NC(=O)c2ccnn2C)C2CCCC(C)(C)C2)cc1 (single isomer, unassigned) [Example 239]",< 100
4,"Cc1n[nH]c(C)c1-c1ccc(NC(=O)C(NC(=O)c2ccnn2C)C2CCc3c(F)cccc32)cc1 (single isomer, unassigned) [Example 247]",< 100
5,"Cc1n[nH]c(C)c1-c1ccc(NC(=O)C(NC(=O)c2ccnn2C)C2CCc3c(F)cccc32)cc1 (single isomer, unassigned) [Example 248]",> 1000
6,"CCC(C1CCCCC1)C(NC(=O)c1ccnn1C)C(=O)Nc1ccc(-c2c(C)n[nH]c2C)cc1 (single isomer, unassigned) [Example 258]",< 100
7,"Cc1n[nH]c(C)c1-c1ccc(NC(=O)C(NC(=O)c2ccnn2C)C2CCCc3cc(F)ccc32)cc1 (single isomer, unassigned) [Example 259]",> 1000
8,"Cc1n[nH]c(C)c1-c1ccc(NC(=O)C(NC(=O)c2ccnn2C)C2CCCc3cc(F)ccc32)cc1 (single isomer, unassigned) [Example 260]",< 100
9,"Cc1n[nH]c(C)c1-c1ccc(NC(=O)[C@@H](NC(=O)c2ccnn2C)C2CCC(C(F)(F)F)CC2)cc1 (single isomer, unassigned) [Example 269]",100 to 1000
10,"Cc1n[nH]c(C)c1-c1ccc(NC(=O)C(NC(=O)c2ccnn2C)C(c2ccccc2)C2CCC2)cc1 (single isomer, unassigned) [Example 299, N-[1-[cyclobutyl(phenyl)methyl]-2-[4-(3,5-dimethyl-1H-pyrazol-4-yl)anilino]-2-oxo-ethyl]-2-methyl-pyrazole-3-carboxamide]",< 100
11,"Cc1n[nH]c(C)c1-c1ccc(NC(=O)C(NC(=O)c2ccnn2C)C(c2ccccc2)C2CCC2)cc1 (single isomer, unassigned) [Example 300, N-[1-[cyclobutyl(phenyl)methyl]-2-[4-(3,5-dimethyl-1H-pyrazol-4-yl)anilino]-2-oxo-ethyl]-2-methyl-pyrazole-3-carboxamide]",> 1000
12,"Cc1n[nH]c(C)c1-c1ccc(NC(=O)C(NC(=O)c2ccnn2C)C(c2ccccc2)C2CC2)cc1 (single isomer, unassigned) [Example 301, N-[1-[cyclopropyl(phenyl)methyl]-2-[4-(3,5-dimethyl-1H-pyrazol-4-yl)anilino]-2-oxo-ethyl]-2-methyl-pyrazole-3-carboxamide]",100 to 1000
13,"Cc1n[nH]c(C)c1-c1ccc(NC(=O)C(NC(=O)c2ccnn2C)C(c2ccccc2)C2CC2)cc1 (single isomer, unassigned) [Example 304, N-[1-[cyclopropyl(phenyl)methyl]-2-[4-(3,5-dimethyl-1H-pyrazol-4-yl)anilino]-2-oxo-ethyl]-2-methyl-pyrazole-3-carboxamide]",> 1000
14,"Cn1cncc1-c1ccc(NC(=O)C(NC(=O)OC(C)(C)C)C(c2ccccc2)C2CCC2)cc1 (single isomer, unassigned) [Example 310, tert-butyl N-[1-[cyclobutyl(phenyl)methyl]-2-[4-(3-methylimidazol-4-yl)anilino]-2-oxo-ethyl]carbamate]",> 1000
15,"Cc1ncn(C)c1-c1ccc(NC(=O)C(NC(=O)c2ccnn2C)C2CCC(F)(F)CC2)cc1 (single isomer, unassigned) [Example 333, N-[1-(4,4-difluorocyclohexyl)-2-[4-(3,5-dimethylimidazol-4-yl)anilino]-2-oxo-ethyl]-2-methyl-pyrazole-3-carboxamide]",> 1000
16,"Cn1cncc1-c1ccc(NC(=O)[C@@H](NC(=O)c2ccnn2C)C(C2CCCCC2)C2CCCC2)cc1 (single isomer, unassigned) [Example 339B]",100 to 1000
17,"Cn1cncc1-c1ccc(NC(=O)C(NC(=O)c2ccnn2C)C(c2cccc(Cl)c2)c2cccc(Cl)c2)cc1 (single isomer, unassigned) [Example 373A, N-(1,1-Bis(3-chlorophenyl)-3-((4-(1-methyl-1H-imidazol-5-yl)phenyl)amino)-3-oxopropan-2-yl)-1-methyl-1H-pyrazole-5-carboxamide]",100 to 1000
18,"Cn1cncc1-c1ccc(NC(=O)C(NC(=O)c2ccnn2C)C(c2cccc(Cl)c2)c2cccc(Cl)c2)cc1 (single isomer, unassigned) [Example 373B, N-(1,1-Bis(3-chlorophenyl)-3-((4-(1-methyl-1H-imidazol-5-yl)phenyl)amino)-3-oxopropan-2-yl)-1-methyl-1H-pyrazole-5-carboxamide]",> 1000

# Second part, the molecule after the results:
row,EC50 [nM],Compound
1,> 1000,"Cc1n[nH]c(C)c1-c1ccc(NC(=O)C(NC(=O)c2ccnn2C)C(C)c2ccccc2)cc1 (single isomer, unassigned) [Example 236]"
2,100 to 1000,"Cc1n[nH]c(C)c1-c1ccc(NC(=O)[C@@H](NC(=O)c2ccnn2C)C2CC3CCC2CC3)cc1 (single isomer, unassigned) [Example 254]"
3,< 100,"Cc1n[nH]c(C)c1-c1ccc(NC(=O)C(NC(=O)c2ccnn2C)[C@H]2CCCc3c(F)cc(F)cc32)cc1 (single isomer, unassigned) [Example 255]"
4,< 100,"Cc1n[nH]c(C)c1-c1ccc(NC(=O)C(NC(=O)c2ccnn2C)[C@H]2CCCc3c(F)cccc32)cc1 (single isomer, unassigned) [Example 256]"
5,< 100,"CCC(C1CCCCC1)C(NC(=O)c1ccnn1C)C(=O)Nc1ccc(-c2c(C)n[nH]c2C)cc1 (single isomer, unassigned) [Example 257]"
6,< 100,"Cc1n[nH]c(C)c1-c1ccc(NC(=O)[C@@H](NC(=O)c2ccnn2C)C2C[C@@H](C)C[C@@H](C)C2)cc1 (single isomer, unassigned) [Example 268]"
7,> 1000,"Cc1n[nH]c(C)c1-c1ccc(NC(=O)C(NC(=O)c2ccnn2C)C(c2ccccc2)C2CC2)cc1 (single isomer, unassigned) [Example 302, N-[1-[cyclopropyl(phenyl)methyl]-2-[4-(3,5-dimethyl-1H-pyrazol-4-yl)anilino]-2-oxo-ethyl]-2-methyl-pyrazole-3-carboxamide]"
8,100 to 1000,"Cc1n[nH]c(C)c1-c1ccc(NC(=O)C(NC(=O)c2ccnn2C)C(c2ccccc2)C2CC2)cc1 (single isomer, unassigned) [Example 303, N-[1-[cyclopropyl(phenyl)methyl]-2-[4-(3,5-dimethyl-1H-pyrazol-4-yl)anilino]-2-oxo-ethyl]-2-methyl-pyrazole-3-carboxamide]"
9,> 1000,"Cn1cncc1-c1ccc(NC(=O)C(NC(=O)OC(C)(C)C)C(c2ccccc2)C2CCC2)cc1 (single isomer, unassigned) [Example 311, tert-butyl N-[1-[cyclobutyl(phenyl)methyl]-2-[4-(3-methylimidazol-4-yl)anilino]-2-oxo-ethyl]carbamate]"
10,> 1000,"Cn1cncc1-c1ccc(NC(=O)[C@@H](NC(=O)OC(C)(C)C)C(C2CCCCC2)C2CCCC2)cc1 (single isomer, unassigned) [Example 312]"
11,> 1000,"Cn1cncc1-c1ccc(NC(=O)[C@@H](NC(=O)OC(C)(C)C)C(C2CCCCC2)C2CCCC2)cc1 (single isomer, unassigned) [Example 313]"
12,> 1000,"Cc1ncn(C)c1-c1ccc(NC(=O)C(NC(=O)c2ccnn2C)C2CCC(F)(F)CC2)cc1 (single isomer, unassigned) [Example 334, N-[1-(4,4-difluorocyclohexyl)-2-[4-(3,5-dimethylimidazol-4-yl)anilino]-2-oxo-ethyl]-2-methyl-pyrazole-3-carboxamide]"
13,100 to 1000,"Cn1cncc1-c1ccc(NC(=O)[C@@H](NC(=O)c2ccnn2C)C(C2CCCCC2)C2CCCC2)cc1 (single isomer, unassigned) [Example 339A]"

# — patent US11377425B1, “Small molecule modulators of IL-17” (LEO Pharma A/S, priority 2018, dated 2022)
